Measured values reported in US10159687B2, “Prodrugs of vitamin K” (KAPPA BIOSCIENCE AS, priority 2012, dated 2018).

Columns and labels:
[1] = Light stability in ethyl acetate (HPLC % area); type: physicochemical; conditions: for After 19 hrs % (content as % area of the total peak area) / Initial % (content as % area of the total peak area) / MK-7 content in the sample after 19 hrs: in ethyl acetate; for After 19 hrs % (content as % area of the total peak area): after 19 hrs of light exposure (ordinary room lighting); for Initial % (content as % area of the total peak area): clear glass vial, initial time point; for light stability compared with the diacetylated compound: light exposure, comparison in words; for MK-7 content in the sample after 19 hrs: after 19 hrs of light exposure, MK-7 formed from the derivative
Procedure: The light stability of MK-7 was compared certain example compounds as hereinbefore described. Compounds were dissolved separately in ethyl acetate or MCT oil, transferred to glass vial (clear glass) and placed on the bench in a well lit laboratory (ordinary room lighting). The samples were analyzed after 19 hours of light exposure or more.
(§1) The samples were analyzed by HPLC using aHPLC_KB_001, with the HPLC conditions detailed below.
(§2) HPLC-DAD high pressure system: Agilent, LC system 1100 series
(§3) Analytical column: Supelcosil C-18, 4.6×250 mm, 5 µm
(§4) Column temperature: 40° C.
(§5) Eluent system: 50% Solvent C: MeOH/Water with 0.1% v/v acetic acid (95/5 v/v) 50% Solvent D: Isopropanol
(§6) The content of MK-7 and the MK-7 derivative in the samples have been quantified as % area of the total peak area in the chromatogram.

[2] = Light stability in MCT oil (HPLC % area); type: physicochemical; conditions: for Purity after 1 h (%) / MK7 content in the sample after 1 h: light exposure 1 h; for Purity after 1 d (%) / MK7 content in the sample after 1 d: light exposure 1 d; for Purity after 3 d (%) / MK7 content in the sample after 3 d: light exposure 3 d; for MK7 content in the sample after 3 d: in %
Procedure: The light stability of MK-7 was compared certain example compounds as hereinbefore described. Compounds were dissolved separately in ethyl acetate or MCT oil, transferred to glass vial (clear glass) and placed on the bench in a well lit laboratory (ordinary room lighting). […]
as §1, §2, §3, §4, §5, §6

[3] = Rat study: MK-7 in plasma after oral gavage in sunflower oil; type: in vivo, male Sprague Dawley Rats; conditions: rats
Procedure: Brief Procedure: Rats: Male Rats aged 6 to 8 weeks and weighing around 180 to 225 g. Animals were fasted overnight with free access to water. Animals were administered test substance by oral gavage with a dose of 100 μg/kg body weight (in recommended formulation and dose volume). Blood samples (150-200 μl) were collected at various time points during the next 48 hours post dose. To determine the bioavailability of different formulations containing MK-7 in male e Sprague Dawley Rats through gavage. Formulations were both dissolved in sunflower oil. Approximately 0.4 ml/animal (depending on the weight of the animal) via oral gavage (100 μg/kg body weight). There were 6 animals per formulation. Blood samples were collected from the tail vein of each animal and transferred into lithium heparin tubes at 2 and 12 hours post dose. Quantification of analyte in plasma was determined by LC-MS-MS analysis: Analyte: MK-7 in plasma. The data are mean of four measurements (low and high values are not included).

SMILES	After 19 hrs % (content as % area of the total peak area) [1] [%]	Initial % (content as % area of the total peak area) [1] [%]	light stability compared with the diacetylated compound [1]	Purity after 1 h (%) [2] [%]	Purity after 1 d (%) [2] [%]	Purity after 3 d (%) [2] [%]	Start purity from CoA (%) ([2]; start)	MK-7 content in the sample after 19 hrs [1] [%]	MK7 content in the sample after 1 h [2] [%]	MK7 content in the sample after 1 d [2] [%]	MK7 content in the sample after 3 d [2]	MK7 content in the sample at start ([2]; start) [%]	serum level 12 hours after administration compared with MK-7 (in words) [3]	degradation after light exposure ([1]; in solution, after 19 hours of light exposure (below Table 1, ethyl acetate))	degradation after light exposure ([2]; after 24 hours of light exposure)
CC(C)=CCC/C(C)=C/CC/C(C)=C/CC/C(C)=C/CC/C(C)=C/CC/C(C)=C/CC/C(C)=C/Cc1c(C)c(OC(=O)c2ccccc2)c2ccccc2c1OC(=O)c1ccccc1 [Example 1, 2-((2E,6E,10E,14E,18E,22E)-3,7,11,15,19,23,27-heptamethyl-octacosa-2,6,10,14,18,22,26-heptaen-1-yl)-3-methylnaphthalene-1,4-diyl dibenzoate]	95.4	98.5	more stable than the diacetylated compound	98.3	97.3	92.9	98.5	–	–	–	–	–	–	–	–
CC(C)=CCC/C(C)=C/CC/C(C)=C/CC/C(C)=C/CC/C(C)=C/CC/C(C)=C/CC/C(C)=C/Cc1c(C)c(O)c2ccccc2c1OC(=O)c1ccccc1 [Example 2A, 2-((2E,6E,10E,14E,18E,22E)-3,7,11,15,19,23,27-heptamethyloctacosa-2,6,10,14,18,22,26-heptaen-1-yl)-4-hydroxy-3-methylnaphthalen-1-yl benzoate]	71.2	93.3	–	83.9	72.5	53.3	93.3	23.4	13.1	18.0	23.65	4	–	–	–
CC(C)=CCC/C(C)=C/CC/C(C)=C/CC/C(C)=C/CC/C(C)=C/CC/C(C)=C/CC/C(C)=C/Cc1c(C)c(OC(=O)c2ccccc2)c2ccccc2c1O [Example 2B, 3-((2E,6E,10E,14E,18E,22E)-3,7,11,15,19,23,27-heptamethyloctacosa-2,6,10,14,18,22,26-heptaen-1-yl)-4-hydroxy-2-methylnaphthalen-1-yl benzoate]	87.6	91.5	–	91.9	84.6	63.8	91.5	2.8	2.7	4.1	5.6	–	–	–	–
CCOP(=O)(OC/C=C(\C)CC/C=C(\C)CC/C=C(\C)CC/C=C(\C)CC/C=C(\C)CC/C=C(\C)CCC=C(C)C)Oc1c(CC)c(C)c(OC(=O)c2ccccc2)c2ccccc12 (stereo not shown) [Example 4, 4-((ethoxy(((2E,6E,10E,14E,18E,22E)-3,7,11,15,19,23,27-heptamethyl-octacosa-2,6,10,14,18,22,26-heptaen-1-yl)oxy)phosphoryl)oxy)-3-ethyl-2-methylnaphthalen-1-yl benzoate]	–	–	–	86.4	84.4	81.5	86.7	–	–	–	–	–	–	–	–
CCC(=O)Oc1c(C)c(C/C=C(\C)CC/C=C(\C)CC/C=C(\C)CC/C=C(\C)CC/C=C(\C)CC/C=C(\C)CCC=C(C)C)c(OC(=O)CC)c2ccccc12 [Example 7, 2-((2E,6E,10E,14E,18E,22E)-3,7,11,15,19,23,27-heptamethyloctacosa-2,6,10,14,18,22,26-heptaen-1-yl)-3-methylnaphthalene-1,4-diyl dipropionate]	97.7	98.5	more stable than the diacetylated compound	98.0	96.7	93.8	98.5	–	–	–	–	–	the same	–	–
CCOP(=O)(OCC)Oc1c(C)c(C/C=C(\C)CC/C=C(\C)CC/C=C(\C)CC/C=C(\C)CC/C=C(\C)CC/C=C(\C)CCC=C(C)C)c(OC(=O)CC)c2ccccc12 [Example 9, 4-((diethoxyphosphoryl)oxy)-2-((2E,6E,10E,14E,18E,22E)-3,7,11,15,19,23,27-heptamethyloctacosa-2,6,10,14,18,22,26-heptaen-1-yl)-3-methylnaphthalen-1-yl propionate]	–	–	–	90.1	89.0	84.2	90.7	–	–	–	–	–	–	–	–
CCC(=O)Oc1c(C/C=C(\C)CC/C=C(\C)CC/C=C(\C)CC/C=C(\C)CC/C=C(\C)CC/C=C(\C)CCC=C(C)C)c(C)c(OC(=O)[C@@H](NC(=O)OC(C)(C)C)C(C)C)c2ccccc12 [Example 10, 3-((2E,6E,10E,14E,18E,22E)-3,7,11,15,19,23,27-heptamethyloctacosa-2,6,10,14,18,22,26-heptaen-1-yl)-2-methyl-4-(propionyloxy)naphthalen-1-yl (tert-butoxycarbonyl)-L-valinate]	–	–	–	92.7	92.0	89.0	93.5	–	–	–	–	–	–	–	–
CCC(=O)Oc1c(C/C=C(\C)CC/C=C(\C)CC/C=C(\C)CC/C=C(\C)CC/C=C(\C)CC/C=C(\C)CCC=C(C)C)c(C)c(OC(=O)CCNC(=O)OC(C)(C)C)c2ccccc12 [Example 12, 3-((2E,6E,10E,14E,18E,22E)-3,7,11,15,19,23,27-heptamethyloctacosa-2,6,10,14,18,22,26-heptaen-1-yl)-2-methyl-4-(propionyloxy)naphthalen-1-yl 3-((tert-butoxycarbonyl)amino)propanoate]	–	–	–	91.9	89.4	84.4	92	–	–	–	–	–	–	–	–
CC(C)=CCC/C(C)=C/CC/C(C)=C/CC/C(C)=C/CC/C(C)=C/CC/C(C)=C/CC/C(C)=C/Cc1c(C)c(OC(=O)c2ccc(C(F)(F)F)cc2)c2ccccc2c1OC(=O)c1ccc(C(F)(F)F)cc1 [Example 13, 2-((2E,6E,10E,14E,18E,22E)-3,7,11,15,19,23,27-heptamethyloctacosa-2,6,10,14,18,22,26-heptaen-1-yl)-3-methylnaphthalene-1,4-diyl bis(4-(trifluoromethyl)benzoate)]	–	–	–	83.6	84.8	79.6	90.2	–	–	–	–	–	–	–	–
CC(C)=CCC/C(C)=C/CC/C(C)=C/CC/C(C)=C/CC/C(C)=C/CC/C(C)=C/CC/C(C)=C/CC1=C(C)C(=O)c2ccccc2C1=O [MK-7, 2-((2E,6E,10E,14E,18E,22E)-3,7,11,15,19,23,27-heptamethyloctacosa-2,6,10,14,18,22,26-heptaen-1-yl)-3-methylnaphthalene-1,4-dione, reference compound]	53.7	99.4	–	97.2	73.5	32.2	99	–	–	–	–	–	–	approximately 50%	approximately 70%
